Source: article PMC5421785, “Citrullination only infrequently impacts peptide binding to HLA class II MHC” (PLoS ONE, 2017)
Like-named read-outs stand apart in the source and are kept apart here. Square brackets hold non-standard residues; d marks the D form. Ends that are not written are not given here. Peptide text beside a SMILES is read from it. Cit = NC(=O)NCCC[C@H](N)C(=O)O

Legend:
HLA-DRB1*04:01 = biological target: T1, HLA-DRB1*04:01 (Homo sapiens, UniProt P01903+P01911, A100K/A169T/F76Y/I96L/K127E/L162R/M171V/N62H/P40V/Q125Y/R42H/S133A/S149N/S66Y/V115G/V209L/W38E); assay: HLA class II peptide binding, inhibition of radiolabeled peptide binding to purified MHC
T1 construct: EBV transformed homozygous cell lines were used as sources of MHC molecules; endogenous in cells; host or cells: EBV transformed homozygous cell lines

HLA-DRB1*01:01 = biological target: T2, HLA-DRB1*01:01 (Homo sapiens, UniProt P01903+P01911, A100R/D57E/F55L/F60I/F76Y/I96L/L162R/M171V/P40L/Q125E/R42F/V115G/Y59C); assay: as above
T2 construct: EBV transformed homozygous cell lines were used as sources of MHC molecules; endogenous in cells; host or cells: EBV transformed homozygous cell lines

[1] = citrullinated 15-mer peptide (X = citrulline), purified HLA-DRB1*04:01, read-out: DRB1*04:01 binding capacity, Cit peptide (IC50 nM)
[2] = citrullinated 15-mer peptide (X = citrulline), purified HLA-DRB1*01:01, read-out: DRB1*01:01 binding capacity, Cit peptide (IC50 nM)
[3] = wild-type (unmodified Arg) 15-mer peptide, purified HLA-DRB1*04:01, read-out: DRB1*04:01 binding capacity, WT peptide (IC50 nM)
[4] = wild-type (unmodified Arg) 15-mer peptide, purified HLA-DRB1*01:01, read-out: DRB1*01:01 binding capacity, WT peptide (IC50 nM)
[5] = citrullinated 15-mer (X), purified MHC, inhibition of radiolabeled peptide binding, dash = IC50 >40,000 nM, read-out: DRB1*04:01 binding capacity, Cit peptide (IC50 nM)
[6] = citrullinated 15-mer (X), purified MHC, inhibition of radiolabeled peptide binding, dash = IC50 >40,000 nM, read-out: DRB1*01:01 binding capacity, Cit peptide (IC50 nM)

Row | Compound | IC50 (HLA-DRB1*04:01; [1]) [nM] | IC50 (HLA-DRB1*01:01; [2]) [nM] | further results
1 | GGPGTASRPSSSRSY [Vimentin 16 WT] |  |  | IC50 (HLA-DRB1*04:01; read-out: DRB1*04:01 binding capacity, WT peptide (IC50 nM)): 39500 nM; IC50 (HLA-DRB1*01:01; read-out: DRB1*01:01 binding capacity, WT peptide (IC50 nM)): 5230 nM
2 | LGPREKGPDPLQYMR [Collagen 1226 WT] |  |  | IC50 (HLA-DRB1*04:01; [3]): > 40000 nM; IC50 (HLA-DRB1*01:01; [4]): 6720 nM
3 | CC(C)C[C@H](NC(=O)CNC(=O)[C@H](CCCNC(N)=O)NC(=O)[C@H](CCC(=O)O)NC(=O)CNC(=O)[C@@H]1CCCN1C(=O)[C@H](CCC(=O)O)NC(=O)CNC(=O)[C@H](C)N)C(=O)N[C@@H](CCCCN)C(=O)NCC(=O)N[C@@H](Cc1c[nH]cn1)C(=O)N[C@@H](CCCNC(=N)N)C(=O)NCC(=O)N[C@@H](Cc1ccccc1)C(=O)O [AGEPGEXGLKGHRGF] (H-AGEPGE[Cit]GLKGHRGF-OH) | > 40000 | 783 | 
4 | CC(C)C[C@H](NC(=O)[C@H](CC(=O)O)NC(=O)[C@H](CC(C)C)NC(=O)[C@H](CCCNC(N)=O)NC(=O)[C@H](C)NC(=O)[C@H](CC(C)C)NC(=O)[C@H](CO)NC(=O)[C@H](C)NC(=O)[C@H](CC(N)=O)NC(=O)[C@H](CC(=O)O)NC(=O)[C@@H](NC(=O)[C@H](CC(=O)O)NC(=O)[C@H](CCC(N)=O)NC(=O)[C@H](CCCNC(=N)N)NC(=O)[C@@H](N)Cc1ccccc1)C(C)C)C(=O)O [FRQDVDNASLAXLDL] (H-FRQDVDNASLA[Cit]LDL-OH) |  |  | IC50 (HLA-DRB1*04:01; [5]): 279 nM; IC50 (HLA-DRB1*01:01; [6]): 3940 nM
5 | PGLQGMPGERGAAGI [Collagen 746 WT] |  |  | IC50 (HLA-DRB1*04:01; [3]): 1050 nM; IC50 (HLA-DRB1*01:01; [4]): 14 nM
6 | CSCC[C@H](NC(=O)[C@@H]1CCCN1C(=O)CNC(=O)[C@@H]1CCCN1C(=O)[C@H](CO)NC(=O)CNC(=O)[C@H](CC(N)=O)NC(=O)[C@@H](N)CCC(=O)O)C(=O)NCC(=O)N1CCC[C@H]1C(=O)N[C@@H](CCCNC(N)=O)C(=O)NCC(=O)N[C@@H](CC(C)C)C(=O)N1CCC[C@H]1C(=O)NCC(=O)O [ENGSPGPMGPXGLPG] (H-ENGSPGPMGP[Cit]GLPG-OH) | > 40000 | 31400 | 
7 | CC(C)C[C@H](NC(=O)[C@H](C)NC(=O)[C@H](CO)NC(=O)CNC(=O)[C@H](CC(C)C)NC(=O)[C@H](CO)NC(=O)[C@H](Cc1ccc(O)cc1)NC(=O)[C@@H](NC(=O)[C@@H](N)CCCNC(=N)N)[C@@H](C)O)C(=O)N[C@@H](CCCNC(N)=O)C(=O)N1CCC[C@H]1C(=O)N[C@@H](CO)C(=O)N[C@H](C(=O)N[C@@H](CO)C(=O)N[C@@H](CCCNC(=N)N)C(=O)O)[C@@H](C)O [RTYSLGSALXPSTSR] (H-RTYSLGSAL[Cit]PSTSR-OH) |  |  | IC50 (HLA-DRB1*04:01; [5]): 1100 nM; IC50 (HLA-DRB1*01:01; [6]): 14 nM

Now from value to compound, other results behind:

Row | IC50 (HLA-DRB1*04:01; [1]) [nM] | IC50 (HLA-DRB1*01:01; [2]) [nM] | Compound | further results
8 | 2260 | 2120 | CC[C@H](C)[C@H](NC(=O)[C@@H](NC(=O)[C@H](CCC(N)=O)NC(=O)CNC(=O)[C@H](CC(=O)O)NC(=O)[C@H](CCCNC(N)=O)NC(=O)[C@@H](NC(=O)[C@H](CCC(=O)O)NC(=O)[C@@H](NC(=O)[C@@H](NC(=O)[C@H](CCCCN)NC(=O)[C@@H](NC(=O)[C@H](CC(C)C)NC(=O)[C@H](CC(C)C)NC(=O)[C@@H](N)[C@@H](C)O)[C@@H](C)CC)[C@@H](C)O)C(C)C)[C@@H](C)O)C(C)C)C(=O)O [TLLIKTVETXDGQVI] (H-TLLIKTVET[Cit]DGQVI-OH) | 
9 | 641 | 15 | CC[C@H](C)[C@H](NC(=O)[C@@H](N)CCSC)C(=O)N[C@@H](CCCNC(N)=O)C(=O)N[C@@H](CC(C)C)C(=O)NCC(=O)N[C@@H](C)C(=O)N1CCC[C@H]1C(=O)N[C@@H](CCC(N)=O)C(=O)N[C@H](C(=O)N[C@@H](CC(C)C)C(=O)N[C@H](C(=O)N[C@@H](CC(C)C)C(=O)N[C@@H](CC(C)C)C(=O)N[C@H](C(=O)N[C@@H](CC(C)C)C(=O)O)[C@@H](C)O)C(C)C)[C@@H](C)O [MIXLGAPQTLVLLTL] (H-MI[Cit]LGAPQTLVLLTL-OH) | 
10 | 8410 | 646 | CC[C@H](C)[C@H](NC(=O)[C@H](CCCNC(N)=O)NC(=O)[C@H](CO)NC(=O)[C@H](CCC(=O)O)NC(=O)[C@H](CCC(=O)O)NC(=O)CN)C(=O)N[C@@H](CO)C(=O)N[C@@H](CC(C)C)C(=O)N1CCC[C@H]1C(=O)N[C@@H](CC(C)C)C(=O)N1CCC[C@H]1C(=O)N[C@@H](CC(N)=O)C(=O)N[C@@H](Cc1ccccc1)C(=O)N[C@@H](CO)C(=O)N[C@@H](CO)C(=O)O [GEESXISLPLPNFSS] (H-GEES[Cit]ISLPLPNFSS-OH) | 
